In US6916604B2, “Uses of synthetic peptides corresponding to telopeptide sequences of cross-linked type I collagen metabolites” (Washington Research Foundation, priority 1987, dated 2005):
No end group written: not given here.

System: MAb-1H11
Assay: ELISA of peptides competing against plated-out P1, or plated out as BSA conjugates, for MAb-1H11 binding
Design: species or system mouse
Conditions: for recognition by MAb-1H11: ELISA, free peptides competing against plated-out P1, or conjugated to BSA and plated out; for competitive binding with MAb-1H11 (FIG. 9): absorbance at 450 nm of detectable marker bound to plated-out P1 vs concentration of free peptide; for recognition of free cross-linking amino acids by MAb-1H11: made by acid hydrolysis from bone collagen or as present naturally in urine

Row | Compound | recognition by MAb-1H11 | competitive binding with MAb-1H11 (FIG. 9) | recognition of free cross-linking amino acids by MAb-1H11
1 | YDEKSTGGC [SEQ ID NO:2] | not recognized | little if any significant competitive binding | –
2 | NC(CCCC[n+]1cc(O)c(CC(N)C(=O)O)c(CCC(N)C(=O)O)c1)C(=O)O (stereo not drawn) [LP, lysyl pyridinoline, reference compound] | – | – | not recognized
3 | NC(CCc1c[n+](CC(O)CCC(N)C(=O)O)cc(O)c1CC(N)C(=O)O)C(=O)O (stereo not drawn) [HP, hydroxylysyl pyridinoline, reference compound] | – | – | not recognized
4 | QYDGKGVGC [SEQ ID NO:1] | not recognized | little if any significant competitive binding | –
